# Values quoted from earlier work as cited in article PMC9503778, “Targeted Isolation of Antibiotic Brominated Alkaloids from the Marine Sponge Pseudoceratina durissima Using Virtual Screening and Molecular Networking” (Marine Drugs, 2022).
# Key:
# Design in all cases: method as in PMID 29702602
# [1] = test system: reef fish (Acanthus triostegus); details: dosed feeding experiments; cited from earlier work
# [2] = test system: fresh water fish (Poecilia reticulata); details: dosed feeding experiments; cited from earlier work
# fish = details: 100 µg/mL; cited from earlier work
smiles,measurement,setting,value
CN(C)CCCOc1c(Br)cc(/C=C/C(=O)N(C)CCCOc2c(Br)cc(CCN(C)C)cc2Br)cc1Br [psammaplysene D],feeding behavior of reef fish (Acanthus triostegus),[1],significant curtailing in feeding behavior
same,feeding behavior of fresh water fish (Poecilia reticulata),[2],significant curtailing in feeding behavior
same,fish behavior during acute exposure,fish,the fish became totally confused and experienced uncontrolled mobility
